In this experiment the test system is UC model mice. Put plainly: 3% DSS-induced ulcerative colitis model in mice: colon length, body weight, Disease Activity Index (DAI). The experiment is classed as in vivo. The conditions noted are these: positive drug group, 500 mg/kg/d by gavage, 3% DSS mice. The protocol: Mice aged 6-8 weeks were adaptively kept in an animal house for 3 days. After weighing, they were randomly divided into 8 groups (counted as Day 0), with 5-6 mice in each group. Experimental grouping was as follows: group 1, normal control; group 2, model; group 3, positive control; and groups 4-8, SZ-A with different administration doses, respectively. 3% DSS was formulated as follows: 3 g of DSS (Dextran Sulfate Sodium Salt) was dissolved in 100 mL of sterile water; The mulberry twig extract as prepared in Preparative Example 1 was formulated at different concentrations and dissolved in 1% CMC solution; Drug as positive control: Sulfasalazine Enteric-Coated Tablets (NMPN H31020557). On the day when grouping was done, the mice in group 8, SZ-A-5 (pretreatment) group, were administered with a mulberry twig extract by oral gavage (see the following table for dosages) once a day. All groups are normally available to food and water. […] After 5 days from the start of modelling, the access to 3% DSS was stopped, and all groups had normal drinking water instead, with the administration done normally. The mice were administered continuously and observed for 10 days, and euthanized by cervical dislocation. The colons of the mice were removed by dissection, and the lengths of the colons were measured and photographed. During the administration, the weights of the mice in each group were measured. During the modelling and administration, stool texture and blood in stool of the mice were monitored daily, and Disease Activity Index, DAI, for the mice was scored according to Table 2 below. [table] [table] • Note: DAI=Score for Weight Loss+Score for Stool Texture+Score for Fecal Occult Blood; Normal Stool: Shaped Stool; Mushy Stool: Pasty, Semi-Shaped Stool without Adhering to Anus; Liquid Stool: Thin, Watery Stool that may Adhere to Anus. Disease Activity Index (DAI) scores for mice were compared using the mulberry twig extracts in each preparative example with reference to the experimental steps in sections 1.1-1.3 above. […]

As for `O=C(O)c1cc(N=Nc2ccc(S(=O)(=O)Nc3ccccn3)cc2)ccc1O` [positive drug, 5-[p-(2-pyridylsulfamoyl)phenylazo]salicylic acid], under “FIG. 1-2”, the “inhibition of colonic atrophy (colon length) compared with model group” value is “significantly inhibited colonic atrophy”. The “inhibition of weight loss compared with model group” value (FIG. 3) is “inhibit weight loss”. For the same compound, the “reduction of Disease Activity Index, DAI, compared with model group” value (FIG. 4) was “reduce Disease Activity Index”.

The values above are taken from US12527830B2, “Method for treating and preventing ulcerative colitis and method for DAI reduction” (BEIJING WEHAND-BIO PHARMACEUTICAL CO., LTD, priority 2022, dated 2026).
